The values that follow come from US20260167622A1, “PAN-KRAS DEGRADING AGENT, AND PREPARATION METHOD THEREFOR AND USE THEREOF” (LEADINGTAC PHARMACEUTICAL (SHAOXING) CO., LTD., priority 2022, published 2026).

The target of experiment [1] is T1, Human KRAS WT (Homo sapiens, UniProt P01116).
T1 construct: purchased PerkinElmer
Kind of experiment: KRAS WT:GTP binding assay (HTRF kit). The note with it: 25° C., 1 h. As to the method: Test Example 3: KRAS WT Binding Assay
In this method, the inhibitory effects of the compounds on the binding of KRAS WT to GTP were assayed by a homogeneous time-resolved fluorescence (HTRF) technique using a KRAS WT:GTP binding assay kit (PerkinElmer).
(§1) The experimental procedures were as follows (refer to the kit instructions for detailed test methods): the compounds of the present disclosure were each firstly dissolved in DMSO at a stock concentration of 20 mM. The stock solutions of the compounds were diluted in an equal gradient with DMSO, and then were subjected to second dilution with a buffer in the kit, so that the final concentrations of the test compounds in the reaction system were in a range of 0.02-5000 nM, and the final concentration of DMSO was 0.5%. […] After the incubation was completed, the fluorescence intensity of each well was measured at the excitation wavelength of 337 nm and the emission wavelengths of 620 nm and 665 nm with an EnVision microplate reader (PerkinElmer) in the HTRF mode, and Ratio values were calculated using the formula: Ratio=(665 nm/620 nm)×104. The inhibition rates of the compounds at each concentration were calculated by comparing the fluorescence intensity ratio with that of the control group. […]
On the technique in general: TR-FRET usually uses a lanthanide donor and a delayed reading to cut background.

For experiment [2], the target named is T2, Human KRAS G12D (Homo sapiens, UniProt P01116, G12D).
T2 construct: purchased PerkinElmer
Put plainly: KRAS-G12D/GTP binding assay (HTRF kit). The note with it: 25° C., 1 h. As to the method: Test Example 1: KRAS G12D Binding Assay
In this method, the inhibitory effects of the compounds on the binding of KLRAS G12D to GTP were assayed by a homogeneous time-resolved fluorescence (HTRF) technique using a KLRAS-G12D/GTP binding assay kit (PerkinElmer).
as §1, with “a” for “a stock”, “mM, and then” for “mM. The stock solutions of the compounds were”, “gradient” for “gradient with DMSO, and then were subjected to second dilution”, “nm)×[…].” for “nm)×104.”

The structures appear in SMILES notation.

T1 sequence (P01116 1-188 isoform P01116-2): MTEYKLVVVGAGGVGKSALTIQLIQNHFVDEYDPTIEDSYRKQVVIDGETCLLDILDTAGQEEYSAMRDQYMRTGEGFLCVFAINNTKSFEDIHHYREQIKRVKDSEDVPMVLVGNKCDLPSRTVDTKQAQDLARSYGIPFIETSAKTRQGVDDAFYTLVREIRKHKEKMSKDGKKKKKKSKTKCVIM
T2 sequence (P01116 1-188 isoform P01116-2 G12D): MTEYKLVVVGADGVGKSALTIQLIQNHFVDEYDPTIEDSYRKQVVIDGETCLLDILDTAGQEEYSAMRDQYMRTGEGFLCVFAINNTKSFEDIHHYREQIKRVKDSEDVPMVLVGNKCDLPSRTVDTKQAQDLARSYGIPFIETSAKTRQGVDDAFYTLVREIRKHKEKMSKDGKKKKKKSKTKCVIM

Regarding `C#Cc1c(F)ccc2cc(O)cc(-c3ncc4c(N5CCC[C@@](C)(O)C5)nc(OCC5(CN6CCN(CC7CCC8(CC7)CCN(C(=O)c7ccc(Cl)c(N9CCC(=O)NC9=O)c7)CC8)CC6)CC5)nc4c3F)c12` [Example 1, (R)-1-(2-chloro-5-(9-((4-((1-(((7-(8-ethynyl-7-fluoro-3-hydroxynaphthalen-1-yl)-8-fluoro-4-(3-hydroxy-3-methylpiperidin-1-yl)pyrido[4,3-d]pyrimidin-2-yl)oxy)methyl)cyclopropyl)methyl)piperazin-1-yl)methyl)-3-azaspiro[5.5]undecane-3-carbonyl)phenyl)dihydropyrimidine-2,4(1H,3H)-dione], the IC50 in experiment [1] was 1000 to 10000 nM; in experiment [2] it was not above 500 nM.
On the same counts, the results for `CCc1cccc2cc(O)cc(-c3ncc4c(N5CCC[C@@](C)(O)C5)nc(OCC5(CN6CCN(CC7CCC8(CC7)CCN(C(=O)c7ccc(Cl)c(N9CCC(=O)NC9=O)c7)CC8)CC6)CC5)nc4c3F)c12` [Example 3, (R)-1-(2-chloro-5-(9-((4-((1-(((7-(8-ethyl-3-hydroxynaphthalen-1-yl)-8-fluoro-4-(3-hydroxy-3-methylpiperidin-1-yl)pyrido[4,3-d]pyrimidin-2-yl)oxy)methyl)cyclopropyl)methyl)piperazin-1-yl)methyl)-3-azaspiro[5.5]undecane-3-carbonyl)phenyl)dihydropyrimidine-2,4(1H,3H)-dione] are 500 to 1000 nM and not above 500 nM.

Usually IC50 stands for the concentration that gives 50% inhibition.
